The values that follow come from patent US4760180A, “N-terminally substituted dipeptide amides” (priority 1986, dated 1988).

The test system of experiment [1] is phenylbenzoquinone-induced writhing in mice. Nature of the experiment: Writhing assay (phenylbenzoquinone). It counts as in vivo. The following applies: 30 min before phenylbenzoquinone i.p.; for Writhing Mouse Oral: screening dose 10 mg/kg p.o. (intragastric); for Writhing Mouse Subc.: screening dose 10 mg/kg s.c. On the procedure:
Writhing assay. Male Charles River albino mice (CD-1/HAM/1LR) weighing between 20 and 30 grams were used. Thirty minutes after subcutaneous or intragastric administration of the test compound (0.1 ml/10 gram body weight), 0.025(w/v) phenylbenzoquinone was injected intraperitoneally (0.1 ml/10 gram body weight). Five minutes later, each mouse was placed in a large glass beaker and the number of writhes that occurred in the subsequent ten minutes is counted. A writhe consisted of dorsoflexion of the back, extension of the hindlimbs, and strong contraction of the abdominal musculature. The test compound was considered to have produced analgesia in a mouse if the number of writhes elicited by phenylbenzoquinone was equal to or less than one-half the median number of writhes recorded for the saline-treated group that day. The results were expressed as the number of mice (out of a possible ten) in which the test compound produced analgesia. […] If the initial test dose of 10 mg/kg inhibited writhing in greater than 6 of IO mice, the effect of additional doses was evaluated and an ED50 value was calculated using a maximum likelihood function.

The target of experiment [2] is opiate receptors isolated from rat brain. It counts as binding. On the procedure: Opiate Binding Assay. The test compounds were evaluated for their ability to displace the binding of ^3 H-Naloxone to opiate receptors isolated from rat brain. Male rats [Crl CD(SD)BR] obtained from Charles River Laboratories (Portage, Mich.) were sacrificed by cervical dislocation. A purified homogenate of receptor membranes was prepared from the brains according to the method described by Chang and Cuatrecasas. (K.-J. Chang and P. Cuatrecasas. Multiple Opiate Receptors: Enkephalins And Morphine Bind To Receptors Of Different Specificity. J. Biol. Chem. 254, 2610-2618 (1979).) The brains were homogenized in 10 volumes of 0.32M sucrose and centrifuged twice at 6,000xg for 15 minutes. Following centrifugation of the supernatants at 40,000xg for 30 minutes, the pellets were resuspended in 5mM Tris-HCl and then centrifuged at 6,000xg. The supernatant was centrifuged at 40,000xg. This resuspended pellet (5mM Tris HCl) was centrifuged twice. The final pellet was resuspended in 2 volumes of 50 mM tris HCl (pH 7.4). The homogenate was assayed for protein content according to the method of Itzhaki and Gill. (R. F. Itzhaki and D. M. Gill. A Micro-Biuret Method for Estimating Proteins. Anal. Biochem. 9, 401-410 (1964).
The binding of the test compounds to the receptor membrane preparation was measured using a modification of the method of Pert and Snyder. (C. B. Pert and S. H. Snyder. Properties of Opiate-Receptor Binding in Rat Brain. Proc. Natl. Acad. Sci. 70, 2243-2247 (1973). The receptor assay was run using final concentrations of 1 nM ^3 -H-Naloxone and 0.5 mg/ml of homogenate protein.
Levorphanol (1×10^-5 M) was used as the displacer for non-specific binding. Final concentration of the test compounds was 10^-5 M. The assay was run in 0.05M tris HCl (pH 7.4). Total assay volume was 1.0 ml.
Samples were incubated at 25° C. for 60 min., filtered over Whatman GF/C glass fiber filters and rinsed twice with 4 ml washes of ice-cold buffer. The filters were air-dried at 50° C. for 30 minutes. After drying, 10 ml of PCS was added to the vial and the radioactivity determined using a tracor analytic Mark III liquid scintillation counter with a counting efficiency of 48.
The IC50 value, the concentration of the test compounds which inhibited ^3 H-Naloxone specific binding to the opiate receptor by 50, were obtained from log-logit plots of concentration-response curves.

Another experiment has as its system rat. The following applies: injected directly into the brain of the rat; Belluzi et al., Nature 260, 625 (1976); cited from earlier work.
Where [3] appears, read: inhibition of 1 nM 3H-Naloxone specific binding, rat brain membranes, screening concentration 10^-5 M.

By IC50 is commonly meant the concentration that inhibits the measured activity by half.

Read-outs that look alike come from different tables or passages of the source.

With “0-ethyl-2,6-dimethyl-DL-tyrosyl-N-(3-phenylpropyl)-D-alaninamide, acetate (salt), hydrochloride (4:3:5; [Example 5]”, in experiment [1], the “Writhing Mouse Oral” value is on record as “Inactive” and the “Writhing Mouse Subc.” value is “Active”. Further, in experiment [2] (read-out: Opiate Binding IC50), the IC50 stood at 130 nM.
As for “2,6,dichlorotyrosyl-N-(3-phenylpropyl)-D-alaninamide, monohydrochloride [Example 23]”, in experiment [1], the “Writhing Mouse Oral” value was “Active” and the “Writhing Mouse Subc.” value is listed as “Active”. Moreover, the IC50 in experiment [2] (setting [3]) stood at 7.6 nM.
As to `Cc1cc(O)cc(C)c1CC(N)C(=O)N(C)[C@H](C)C(=O)NCCCc1ccccc1.Cl` (mixture of isomers) [Example 15, 2,6-dimethyl-DL-tyrosyl-Nα-methyl-N-(3-phenylpropyl)-D-alaninamide, monohydrochloride], in experiment [1], the “Writhing Mouse Oral” value is “Active” and the “Writhing Mouse Subc.” value is reported as “Active”. Also, the IC50 in experiment [2] (setting [3]) came out at 0.6 nM.
Consider `Cc1cc(O)cc(C)c1CC(N)C(=O)N[C@H](C)C(=O)N(C)CCCc1ccccc1.Cl` (mixture of isomers) [Example 16, 2,6-dimethyl-DL-tyrosyl-N-methyl-N-(3-phenylpropyl)-D-alaninamide, monohydrochloride], for which, in experiment [1], the “Writhing Mouse Oral” value is on record as “Inactive” and the “Writhing Mouse Subc.” value is “Active”. In experiment [2] (setting [3]), this molecule showed an IC50 of 300 nM.
With `COc1cc(C)c(CC(N)C(=O)N[C@H](C)C(=O)NCCCc2ccccc2)c(C)c1.Cl` (mixture of isomers) [Example 2, 0,2,6-trimethyl-DL-tyrosyl-N-(3-phenylpropyl)-D-alaninamide, monohydrochloride], in experiment [1], the “Writhing Mouse Oral” value is “Active” and the “Writhing Mouse Subc.” value is “Active”. Also, in experiment [2] (setting [3]), the IC50 is 290 nM.
Turning to `CNC(Cc1c(C)cc(OCc2ccccc2)cc1C)C(=O)N[C@H](C)C(=O)NCCCc1ccccc1.Cl` (mixture of isomers) [Example 12, N,2,6-trimethyl-0-(phenylmethyl)-DL-tyrosyl-N-(3-phenylpropyl)-D-alaninamide, monohydrochloride], in experiment [1], the “Writhing Mouse Oral” value is reported as “Active” and the “Writhing Mouse Subc.” value is “Active”. The molecule further had an IC50 in experiment [2] (setting [3]) of 3600 nM.
Regarding `COc1cc(C)c(C[C@H](N)C(=O)N[C@H](C)C(=O)NCCCc2ccccc2)c(C)c1` [Example 3, 0,2,6-trimethyltyrosyl-N-(3-phenylpropyl)-D-alaninamide], in experiment [1], the “Writhing Mouse Oral” value is “Active” and the “Writhing Mouse Subc.” value is on record as “Active”. For the same molecule, the IC50 in experiment [2] (setting [3]) worked out at 420 nM.
On to `COc1cc(C)c(C[C@H](N)C(=O)N[C@H](C)C(=O)NCCCc2ccccc2)c(C)c1` [Example 4, 0,2,6-trimethyltyrosyl-N-(3-phenylpropyl)-D-alaninamide], for which, in experiment [1], the “Writhing Mouse Oral” value is “Active” and the “Writhing Mouse Subc.” value is listed as “Active”. The molecule also showed an IC50 in experiment [2] (setting [3]) of 75 nM.
For `Cc1cc(OC(C)C)cc(C)c1C[C@H](N)C(=O)N[C@H](C)C(=O)NCCCc1ccccc1.Cc1cc(OC(C)C)cc(C)c1C[C@H](N)C(=O)N[C@H](C)C(=O)NCCCc1ccccc1.Cc1cc(OC(C)C)cc(C)c1C[C@H](N)C(=O)N[C@H](C)C(=O)NCCCc1ccccc1.Cc1cc(OC(C)C)cc(C)c1C[C@H](N)C(=O)N[C@H](C)C(=O)NCCCc1ccccc1.Cl.Cl.Cl.Cl.Cl` [Example 6, 2,6,dimethyl-0-(1-methylethyl)tyrosyl-N-(3-phenylpropyl)-D-alaninamide, hydrochloride (4:5)], in experiment [1], the “Writhing Mouse Oral” value is on record as “Inactive” and the “Writhing Mouse Subc.” value is listed as “Inactive”. In experiment [2] (read-out: Opiate Binding IC50), the IC50 was 47 nM.
For `COc1ccc(C[C@H](N)C(=O)N[C@H](C)C(=O)NCCCc2ccccc2)cc1.Cl` [Example 9, 0-methyl-L-tyrosyl-N-(3-phenylpropyl)-D-alaninamide, monohydrochloride], in experiment [1], the “Writhing Mouse Oral” value is given as “Active” and the “Writhing Mouse Subc.” value is given as “Active”. The “Opiate Binding IC50” value in experiment [2] is listed as “Inactive”.
`CN[C@@H](Cc1c(C)cc(OC)cc1C)C(=O)N[C@H](C)C(=O)NCCCc1ccccc1.Cl` [Example 11, N,0,2,6,-tetramethyltyrosyl-N-(3-phenylpropyl)-D-alaninamide, monohydrochloride]: in experiment [1], the “Writhing Mouse Oral” value was “Active” and the “Writhing Mouse Subc.” value is recorded as “Active”. Besides, the IC50 in experiment [2] (setting [3]) stood at 610 nM.
Regarding `CN[C@@H](Cc1c(C)cc(O)cc1C)C(=O)N[C@H](C)C(=O)NCCCc1ccccc1.Cl` [Example 13, N,2,6-trimethyltyrosyl-N-(3-phenylpropyl)-D-alaninamide, monohydrochloride], in experiment [1], the “Writhing Mouse Oral” value is listed as “Inactive” and the “Writhing Mouse Subc.” value is recorded as “Active”. Also, the half-inhibitory concentration (IC50) in experiment [2] (inhibition of 1 nM 3H-Naloxone specific binding, rat brain membranes, screening concentration 10^-5 M, monohydrochloride) turned out to be 1800 nM.
With `CN[C@@H](Cc1c(C)cc(O)cc1C)C(=O)N[C@H](C)C(=O)NCCCc1ccccc1.CN[C@@H](Cc1c(C)cc(O)cc1C)C(=O)N[C@H](C)C(=O)NCCCc1ccccc1.CN[C@@H](Cc1c(C)cc(O)cc1C)C(=O)N[C@H](C)C(=O)NCCCc1ccccc1.CN[C@@H](Cc1c(C)cc(O)cc1C)C(=O)N[C@H](C)C(=O)NCCCc1ccccc1.Cl.Cl.Cl.Cl.Cl` [Example 14, N,2,6-trimethyltyrosyl-N-(3-phenylpropyl)-D-alaninamide, hydrochloride (4:5)], in experiment [1], the “Writhing Mouse Oral” value is on record as “Inactive” and the “Writhing Mouse Subc.” value is “Active”. This molecule also returned a 50% inhibitory concentration (IC50) in experiment [2] (setting [3]) of 140 nM.
For `Cc1cc(C)c(C[C@H](N)C(=O)N[C@H](C)C(=O)NCCCc2ccccc2)c(C)c1.Cl` [Example 25, 2,4,6-trimethylphenylalanyl-N-(3-phenylpropyl)-D-alaninamide, monohydrochloride] the same measures were “Inactive”, “Active” and 2000 nM.
Turning to `Cc1cc(OCc2ccccc2)cc(C)c1C[C@H](N)C(=O)N[C@H](C)C(=O)NCCCc1ccccc1.Cl` [Example 27, 2,6-dimethyl-O-(phenylmethyl)-L-tyrosyl-N-(3-phenylpropyl)-D-alaninamide, monohydrochloride], in experiment [1], the “Writhing Mouse Oral” value is recorded as “Active” and the “Writhing Mouse Subc.” value is on record as “Active”. Moreover, in experiment [2] (setting [3]), the IC50 was determined as 360 nM.
Take `Cc1cc(OCc2ccccc2)cc(C)c1C[C@@H](N)C(=O)N[C@H](C)C(=O)NCCCc1ccccc1.Cl` [Example 28, 2,6-dimethyl-O-(phenylmethyl)-D-tyrosyl-N-(3-phenylpropyl)-D-alaninamide, hydrochloride]: in experiment [1], the “Writhing Mouse Oral” value is listed as “Active” and the “Writhing Mouse Subc.” value is “Active”. In experiment [2] (setting [3]), this molecule yielded an IC50 of 22 nM.
As for methionine enkephalin, in the experiment on rat, the analgesic activity entry was “weak, fleeting analgesic activity”.
